Experimental data taken from the supplement of paper PMC10307832.

How the values were obtained:
Test in all cases: relative viability (nuclei count vs DMSO), 5 days (fraction); higher = more cells survive
VX-11e + Tozasertib = compound: CC1=CN=C(N=C1C2=CNC(=C2)C(=O)N[C@H](CO)C3=CC(=CC=C3)Cl)NC4=C(C=C(C=C4)F)Cl [VX-11e] + Cc1cc(Nc2cc(N3CCN(C)CC3)nc(Sc3ccc(NC(=O)C4CC4)cc3)n2)n[nH]1 [Tozasertib] (partner 0.1 µM)
In short: (§1)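 The day after seeding in 1536-well plates, lung cancer cell lines were treated by pin tool with a single drug, or with a fixed anchor-drug dose together with five library-drug doses (not always all listed) in √10 steps. After 5 days, a combined fix-and-stain solution (final 0.05% Triton X-100, 1% formaldehyde, 1 ug/ml Hoechst) was added. Nuclei counted on 4× images gave relative viability as treated counts over vehicle counts, reported as the median of duplicate plates.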

VX-11e + OSI-027 = compound: CC1=CN=C(N=C1C2=CNC(=C2)C(=O)N[C@H](CO)C3=CC(=CC=C3)Cl)NC4=C(C=C(C=C4)F)Cl [VX-11e] + COc1cccc2cc(-c3nc([C@H]4CC[C@H](C(=O)O)CC4)n4ncnc(N)c34)[nH]c12 [OSI-027] (partner 0.5 µM)
In short: as §1

VX-11e + Linsitinib = compound: CC1=CN=C(N=C1C2=CNC(=C2)C(=O)N[C@H](CO)C3=CC(=CC=C3)Cl)NC4=C(C=C(C=C4)F)Cl [VX-11e] + C[C@]1(O)C[C@@H](c2nc(-c3ccc4ccc(-c5ccccc5)nc4c3)c3c(N)nccn32)C1 [Linsitinib] (partner 1 µM)
In short: as §1

VX-11e + Crizotinib = compound: CC1=CN=C(N=C1C2=CNC(=C2)C(=O)N[C@H](CO)C3=CC(=CC=C3)Cl)NC4=C(C=C(C=C4)F)Cl [VX-11e] + C[C@@H](Oc1cc(-c2cnn(C3CCNCC3)c2)cnc1N)c1c(Cl)ccc(F)c1Cl [Crizotinib] (partner 1 µM)
In short: as §1

Row | Cell Line | relative viability (VX-11e + Tozasertib; first compound 0.04 µM) | relative viability (VX-11e + Tozasertib; first compound 0.1265 µM) | relative viability (VX-11e + Tozasertib; first compound 0.4 µM) | relative viability (VX-11e + Tozasertib; first compound 1.265 µM) | relative viability (VX-11e + Tozasertib; first compound 4 µM) | relative viability (VX-11e + OSI-027; first compound 0.04 µM) | relative viability (VX-11e + OSI-027; first compound 0.1265 µM) | relative viability (VX-11e + OSI-027; first compound 0.4 µM) | relative viability (VX-11e + OSI-027; first compound 1.265 µM) | relative viability (VX-11e + OSI-027; first compound 4 µM) | relative viability (VX-11e + Linsitinib; first compound 0.04 µM) | relative viability (VX-11e + Linsitinib; first compound 0.1265 µM) | relative viability (VX-11e + Linsitinib; first compound 0.4 µM) | relative viability (VX-11e + Linsitinib; first compound 1.265 µM) | relative viability (VX-11e + Linsitinib; first compound 4 µM) | relative viability (VX-11e + Crizotinib; first compound 0.04 µM) | relative viability (VX-11e + Crizotinib; first compound 0.1265 µM) | relative viability (VX-11e + Crizotinib; first compound 0.4 µM) | relative viability (VX-11e + Crizotinib; first compound 1.265 µM) | relative viability (VX-11e + Crizotinib; first compound 4 µM)
1 | NCI-H596 | 0.912 | 0.815 | 0.845 | 0.758 | 0.446 | 0.518 | 0.691 | 0.525 | 0.349 | 0.407 | 1.06 | 0.944 | 0.981 | 0.874 | 0.769 | 0.891 | 1.05 | 1.09 | 0.939 | 0.722
2 | NCI-H2170 | 0.81 | 0.687 | 0.734 | 0.69 | 0.686 | 0.589 | 0.624 | 0.155 | 0.649 | 0.453 | – | – | – | – | – | 1.18 | 1.04 | 1.23 | 1.03 | 1.1
3 | NCI-H3122 | 0.452 | 0.413 | – | 0.23 | 0.173 | 0.892 | 0.898 | – | 0.513 | 0.147 | 0.971 | 1.01 | 0.974 | 0.929 | 0.58 | 0.302 | 0.288 | 0.275 | 0.35 | 0.226
4 | HCC-15 | 0.428 | 0.35 | 0.306 | 0.153 | 0.172 | 0.616 | 0.624 | – | 0.227 | 0.153 | 0.868 | 0.815 | 0.746 | 0.497 | 0.217 | 0.904 | 0.747 | 0.64 | 0.449 | 0.264
5 | NCI-H1915 | 0.42 | 0.392 | 0.401 | 0.366 | 0.295 | 0.573 | 0.439 | 0.254 | 0.338 | 0.213 | 1.21 | 1.12 | 1.19 | 1.04 | 0.857 | 0.945 | 0.82 | 0.919 | 0.788 | 0.548
6 | NCI-H1734 | 0.289 | 0.209 | 0.234 | 0.23 | 0.192 | 0.566 | 0.459 | 0.472 | 0.348 | 0.227 | 0.797 | 0.789 | 0.814 | 0.837 | 0.536 | 0.67 | 0.584 | 0.652 | 0.606 | 0.296
7 | NCI-H2342 | 0.422 | 0.503 | 0.498 | 0.406 | 0.416 | 0.505 | 0.592 | 0.637 | 0.539 | 0.56 | – | – | – | – | – | – | – | – | – | –
8 | COR-L 105 | 0.341 | 0.342 | 0.367 | 0.721 | 0.268 | 0.541 | 0.802 | 0.552 | 0.326 | 0.254 | 1.04 | 0.946 | 0.568 | 0.571 | 0.267 | 0.779 | 0.705 | 0.547 | 0.369 | 0.292
9 | RERF-LC-KJ | 0.529 | 0.452 | 0.564 | 0.457 | 0.29 | 0.442 | 0.474 | 0.528 | 0.504 | 0.327 | 0.989 | 0.863 | 0.862 | 0.874 | 0.708 | 0.899 | 0.834 | 0.881 | 0.863 | 0.753
10 | NCI-H2228 | 0.248 | 0.202 | – | 0.149 | 0.115 | 0.617 | 0.54 | – | 0.216 | 0.123 | 0.577 | 0.692 | 0.489 | 0.308 | 0.214 | 0.533 | 0.524 | 0.463 | 0.263 | 0.303
11 | NCI-H1944 | 0.224 | 0.227 | – | 0.231 | 0.171 | 0.342 | 0.343 | – | 0.309 | 0.259 | 1.08 | 1.09 | 0.998 | 0.862 | 0.552 | 1.17 | 1.02 | 0.942 | 0.905 | 0.583
12 | NCI-H1648 | 0.515 | 0.378 | 0.566 | 0.292 | 0.318 | 0.273 | 0.238 | 0.29 | 0.245 | 0.241 | – | – | – | – | – | – | – | – | – | –
13 | NCI-H647 | 0.254 | 0.301 | 0.246 | 0.205 | 0.0828 | 0.664 | 0.456 | 0.496 | 0.41 | 0.353 | 1.1 | 1.05 | 1.09 | 0.674 | 0.378 | 1.1 | 0.916 | 1.01 | 0.608 | 0.523
14 | A549 | – | – | – | – | – | – | – | – | – | – | 0.548 | 0.485 | 0.448 | 0.31 | 0.169 | 0.826 | 0.786 | 0.601 | 0.207 | 0.0915
15 | LC-2-ad | 0.522 | 0.45 | 0.319 | 0.383 | 0.369 | 0.73 | 0.534 | 0.363 | 0.584 | 0.466 | 0.831 | 0.852 | 0.787 | 0.572 | 0.508 | 0.459 | 0.424 | 0.529 | 0.395 | 0.401
16 | EMC-BAC-2 | 0.313 | 0.272 | 0.373 | 0.382 | 0.353 | 0.312 | 0.387 | 0.458 | 0.421 | 0.357 | 0.831 | 0.74 | 0.743 | 0.712 | 0.602 | 0.808 | 0.708 | 0.739 | 0.618 | 0.671
17 | EBC-1 | – | – | – | – | – | – | – | – | – | – | 0.954 | 0.872 | 0.494 | 0.371 | 0.19 | 0.204 | 0.182 | 0.163 | 0.198 | 0.18
18 | SW 900 | 0.737 | 0.401 | 0.409 | 0.307 | 0.258 | 0.276 | 0.448 | 0.12 | 0.304 | 0.246 | – | – | – | – | – | – | – | – | – | –
19 | NCI-H1792 | – | – | – | – | – | 0.733 | 0.581 | 0.524 | 0.634 | 0.208 | 0.706 | 0.488 | 0.681 | 0.484 | 0.137 | 0.956 | 0.954 | 0.915 | 0.982 | 0.52
